The values below come from DBAASP.

≈ marks a conversion by molar mass, not a printed value. Where “and” joins values, the source holds several entries; their conditions need not be identical. Equal entries are not always repeated. Bounds are passed on as bounds.

What all share (test): ≥ marks a high value that may be exact or a test limit, other limits are often not marked, values filed in µg/mL are converted to µM
Test [1] deals with Salmonella enterica subsp. enterica serovar Enteritidis ATCC 13076.
Test [2] relates to Candida albicans ATCC 10231.
The subject of test [3] is Escherichia coli ATCC 27325.
Test [4] has as its system Staphylococcus aureus ATCC 15752.
For test [5], the system named is Streptococcus mutans ATCC 25175.
The test system of test [6] is Pseudomonas putida ATCC 17426.
Test [7] has as its system Saccharomyces cerevisiae ATCC 44774.
For test [8], the system named is Bacillus subtilis ATCC 62037.
In test [9] the test system is Cryptococcus neoformans ATCC 34881.
In test [10] the test system is Staphylococcus aureus CCARM 3543.
Test [11] has as its system Bacillus subtilis KCTC 3068.
Test [12] concerns Staphylococcus aureus CCARM 3001.
The test system of test [13] is Staphylococcus aureus KCTC 1621.
In test [14] the test system is Pseudomonas aeruginosa CCARM 2095.
Test [15] relates to Salmonella typhimurium KCTC 1926.
For test [16], the system named is Pseudomonas aeruginosa KCTC 1637.
Test [17] deals with Staphylococcus epidermidis KCTC 1917.
Test [18] relates to Escherichia coli KCTC 1682.
Test [19] has as its system Pseudomonas aeruginosa CCARM 2109.
Test [20] has as its system Shigella dysenteriae ATCC 9752.
In test [21] the test system is Staphylococcus epidermidis ATCC 12228.
Test [22] relates to Staphylococcus aureus TK784.
Test [23] has as its system Escherichia coli ATCC 25922.
In test [24] the test system is Pseudomonas aeruginosa ATCC 27853.
Test [25] has as its system Klebsiella pneumoniae ATCC 10031.
For test [26], the system named is Micrococcus luteus ATCC 10240.
The subject of test [27] is Staphylococcus aureus ATCC 6538P.
The subject of test [28] is Bacillus subtilis ATCC 6633.
Test [29] concerns Salmonella enterica subsp. enterica serovar Typhimurium ATCC 14028.
Test [30] relates to Staphylococcus aureus SG501.
Test [31] relates to Staphylococcus aureus.
Test [32] has as its system Micrococcus luteus ATCC 9341.
Test [33] has as its system Corynebacterium diphtheriae ATCC 8024.
Test [34] concerns Staphylococcus aureus ATCC 6538.
The test system of test [35] is Proteus vulgaris ATCC 6380.
In test [36] the test system is Bacillus subtilis ATCC 1768.
Test [37] deals with Pseudomonas aeruginosa ATCC 9027.
Test [38] has as its system Candida albicans ATCC 36232.
Test [39] concerns Streptococcus pyogenes 77A.
Test [40] concerns Corynebacterium diphtheriae ATCC 8032.
Test [41] concerns Escherichia coli ATCC 2592.
In test [42] the test system is Shigella flexneri ATCC 203.
Test [43] concerns Streptococcus pyogenes 308A.

For `CC(C)[C@H](NC(=O)[C@H](CCCCN)NC(=O)CNC(=O)CNC(=O)[C@H](CCC(N)=O)NC(=O)[C@H](CCCCN)NC(=O)CNC(=O)[C@H](CCCN=C(N)N)NC(=O)CN)C(=O)N[C@@H](CCCN=C(N)N)C(=O)N[C@@H](C)C(=O)N[C@@H](CCCCN)C(=O)N[C@@H](C)C(=O)N[C@@H](CCCCN)C(=O)N[C@H](C(=O)N[C@@H](CCCN=C(N)N)C(=O)N[C@@H](CO)C(=O)N[C@@H](CO)C(=O)O)[C@@H](C)O` [GRGKQGGKVRAKAKTRSS], the MIC – broadly, the lowest concentration that inhibits growth of the organism – is at least 68.4 µM in test [1]; above 68.4 µM in test [2]; at least 68.4 µM in test [3]; at least 68.4 µM in test [4]; at least 68.4 µM in [5]; at least 68.4 µM in test [6]. The MIC in test [7], in [8] and in test [9] was at least 68.4 µM each time.

For the compound `CC(C)C[C@H](NC(=O)[C@H](CC(C)C)NC(=O)[C@H](Cc1c[nH]c2ccccc12)NC(=O)[C@H](CCCCN)NC(=O)[C@H](CC(C)C)NC(=O)[C@H](Cc1c[nH]c2ccccc12)NC(=O)[C@H](CC(C)C)NC(=O)[C@H](CC(C)C)NC(=O)[C@H](Cc1c[nH]c2ccccc12)NC(=O)[C@H](CC(C)C)NC(=O)[C@@H](N)CCCCN)C(N)=O` [KLWLLWLKWLL], the MIC in test [10] was at least 32 µM; in test [11], at least 32 µM; in [12], at least 64 µM; in test [13], at least 32 µM; in test [14] it was at least 64 µM; in test [15], at least 32 µM. Moreover, the minimal inhibitory concentration (MIC) in test [16] is 16 µM (≈ 24.2 µg/mL); in test [17], at least 32 µM; in [18] it was at least 32 µM; in test [19], at least 64 µM.

For the compound `CC(C)C[C@H](NC(=O)[C@H](Cc1c[nH]c2ccccc12)NC(=O)[C@H](CCCCN)NC(=O)[C@H](CC(C)C)NC(=O)[C@H](CC(C)C)NC(=O)[C@H](Cc1c[nH]c2ccccc12)NC(=O)[C@H](CCCCN)NC(=O)[C@@H](N)CC(C)C)C(=O)N[C@@H](CCCCN)C(N)=O` [LKWLLKWLK], the MIC in test [20] is at least 32.6 µM; in test [21] it was 4.07 µM (≈ 5 µg/mL); in [22] it was 16.3 µM (≈ 20 µg/mL); in test [23], 4.07 µM (≈ 5 µg/mL); in test [24] it was 32.6 µM (≈ 40 µg/mL); in test [25], 16.3 µM (≈ 20 µg/mL). Besides, the MIC in test [26] amounted to 8.15 µM (≈ 9.99 µg/mL); in test [27], 2.04 µM (≈ 2.5 µg/mL); in test [28], 4.07 µM (≈ 5 µg/mL); in test [29], 32.6 µM (≈ 40 µg/mL).

In the case of `CC[C@H](C)[C@@H]1NC(=O)[C@H](CC(=O)O)NC(=O)[C@@H](NC(=O)[C@@H](NC(=O)[C@@H](N)C(C)C)[C@@H](C)O)CSSC[C@@H]2NC(=O)[C@H](Cc3ccc(O)cc3)NC(=O)CNC(=O)CNC(=O)[C@H](CO)NC(=O)[C@H](CCCN=C(N)N)NC(=O)CNC(=O)[C@H](CCCN=C(N)N)NC(=O)[C@H](Cc3ccccc3)NC(=O)[C@H](CC(C)C)NC(=O)[C@@H]3CSSC[C@@H](C(=O)N[C@@H](CCCN=C(N)N)C(=O)O)NC(=O)[C@H](C(C)C)NC(=O)[C@H](CSSC[C@H](NC(=O)[C@H](C)NC(=O)[C@H](C)NC(=O)[C@H](CC(=O)O)NC(=O)[C@H](CC(N)=O)NC(=O)[C@H](CC(C)C)NC(=O)[C@H](CCCCN)NC(=O)[C@H](C(C)C)NC(=O)CNC(=O)[C@H](CCCCN)NC(=O)[C@H](C)NC(=O)[C@H](CCC(=O)O)NC(=O)[C@H](C(C)C)NC(=O)[C@H](CO)NC(=O)[C@H](CC(C)C)NC1=O)C(=O)N[C@@H](C)C(=O)N[C@@H](C)C(=O)N[C@@H](Cc1cnc[nH]1)C(=O)N3)NC(=O)[C@H](C(C)C)NC(=O)[C@H](CCCN=C(N)N)NC(=O)[C@H](CCCCN)NC(=O)CNC(=O)[C@H](CC(N)=O)NC2=O` [VTCDILSVEAKGVKLNDAACAAHCLFRGRSGGYCNGKRVCVCR], the minimum inhibitory concentration (MIC) was 0.176 µM in test [30]; 1.76 µM in test [21]; 5.5 µM in [31]; 0.686 µM and 1.76 µM in test [32]; 1.76 µM in [33]; 1.38 µM in test [34]. Also, the minimal inhibitory concentration (MIC) was 6.6 µM in test [35]; 0.44 µM in test [36]; above 22 µM in [37]; 22 µM in test [38]; 0.22 µM in test [39]; 1.1 µM in [26]. Besides, the minimal inhibitory concentration (MIC) in test [40] amounted to 1.32 µM; in test [28] it was 0.22 µM; in test [41], 22 µM; in test [42] it was 6.6 µM; in test [43], 0.352 µM.
